Assay results: BigSolDB 2.1

Cc1ccc(CO)cc1
solubility (mole fraction)
Conditions | 278.15 K | 283.15 K | 288.15 K | 293.15 K | 298.15 K | 303.15 K | 308.15 K | 313.15 K
in 1,2-dichloroethane | 0.166 | 0.214 | 0.28 | 0.343 | 0.418 | 0.506 | 0.585 | 0.685
in acetone | 0.226 | 0.272 | 0.321 | 0.384 | 0.431 | 0.497 | 0.568 | 0.642
in acetonitrile | 0.162 | 0.214 | 0.287 | 0.361 | 0.454 | 0.548 | 0.638 | 0.735
in dichloromethane | 0.4 | 0.429 | 0.466 | 0.502 | 0.537 | 0.588 | 0.646 | 0.729
in ethanol | 0.236 | 0.276 | 0.327 | 0.379 | 0.44 | 0.508 | 0.581 | 0.662
in ethyl acetate | 0.215 | 0.259 | 0.308 | 0.369 | 0.433 | 0.511 | 0.587 | 0.671
in ethyl formate | 0.152 | 0.191 | 0.242 | 0.303 | 0.372 | 0.449 | 0.537 | 0.62
in isobutanol | 0.231 | 0.275 | 0.321 | 0.373 | 0.446 | 0.513 | 0.594 | 0.667
in isopropanol | 0.248 | 0.283 | 0.33 | 0.386 | 0.448 | 0.527 | 0.597 | 0.674
in n-butanol | 0.252 | 0.287 | 0.334 | 0.385 | 0.45 | 0.51 | 0.584 | 0.698
in n-propanol | 0.253 | 0.293 | 0.34 | 0.398 | 0.454 | 0.518 | 0.595 | 0.674
